Read-outs that look alike come from different tables or passages of the source.
Legend:
[1] = target: recombinant RORγ Ligand Binding Domain (LBD) protein (Homo sapiens (Human), UniProt P51449); test: Radio-Ligand RORγ Binding Assay (Assay 1); details: competition with 25-hydroxy [26,27-3H]-cholesterol, SPA, read-out: RORγ Binding Ki Range*
Method in brief: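 Scintillation proximity competition binding of 8.6 nM stock 25-hydroxy[26,27-3H]cholesterol to 24 nM stock 6×His-GST-tagged human RORγ LBD, in 50 mM HEPES pH 7.4 with NaCl, MgCl2, glycerol, CHAPS, β-octylglucopyranoside and DTT, room temperature. Inhibition referenced to DMSO and 10 μM T0901317; IC50 by four-parameter fit, converted to Ki using radioligand concentration and KD.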

[2] = target: full-length RORγt in Jurkat cells (Homo sapiens (Human), UniProt P51449); test: RORγt 5xRORE Assay in Jurkat Cells (Assay 2); assay type: cell-based; details: Nanoluc luciferase reporter, 16-18 hrs
Method in brief: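 Jurkat cells co-transfected with full-length RORγt expression plasmid and a 5×RORE-driven secreted Nanoluc reporter, then plated at 80,000 cells/well in phenol-red-free RPMI with 10% delipidated FBS. Compounds added at 0.1% DMSO for 16–18 h at 37 °C; supernatant luciferase read for inverse agonism.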

[3] = Table 9, read-out: RORγt5X IC50 Range*
[4] = Table 8, read-out: RORγt5X IC50 Range*

Sequence of recombinant RORγ Ligand Binding Domain (LBD) protein (P51449 269-508): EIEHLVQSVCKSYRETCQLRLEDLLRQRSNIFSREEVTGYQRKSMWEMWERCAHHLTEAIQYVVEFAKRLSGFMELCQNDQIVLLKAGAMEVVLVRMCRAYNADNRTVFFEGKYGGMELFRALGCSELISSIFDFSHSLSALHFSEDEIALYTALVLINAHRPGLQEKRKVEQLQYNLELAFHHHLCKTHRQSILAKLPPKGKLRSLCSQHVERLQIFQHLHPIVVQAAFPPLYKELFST
Sequence of full-length RORγt in Jurkat cells (P51449 other isoform, or with tags, fused parts or gaps): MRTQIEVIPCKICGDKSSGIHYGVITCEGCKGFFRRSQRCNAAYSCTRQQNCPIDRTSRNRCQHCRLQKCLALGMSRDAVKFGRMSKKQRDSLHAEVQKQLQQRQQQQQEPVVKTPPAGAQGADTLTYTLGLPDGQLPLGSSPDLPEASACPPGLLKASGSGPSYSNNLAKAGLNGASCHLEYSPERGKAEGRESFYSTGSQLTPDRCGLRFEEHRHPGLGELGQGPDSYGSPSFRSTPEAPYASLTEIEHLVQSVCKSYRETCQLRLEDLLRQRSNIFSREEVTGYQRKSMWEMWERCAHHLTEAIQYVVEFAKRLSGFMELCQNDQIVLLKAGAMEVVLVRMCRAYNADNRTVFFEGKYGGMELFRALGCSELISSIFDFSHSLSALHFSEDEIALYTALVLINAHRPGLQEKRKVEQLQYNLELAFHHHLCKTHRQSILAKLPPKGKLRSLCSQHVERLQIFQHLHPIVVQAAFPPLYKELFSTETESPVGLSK

Row | SMILES | Ki ([1]; Table 9) | IC50 [2, 3] | Ki ([1]; Table 8) | IC50 [2, 4]
1 | CCS(=O)(=O)c1ccc(CC(=O)Nc2nc3c(s2)CN([C@@H](C)c2ccccc2)[C@@H]3C(C)C)cc1 (single isomer, unassigned) | < 0.1 µM | > 1 µM | – | –
2 | CC(C)[C@H]1c2nc(NC(=O)Cc3ccc(S(C)(=O)=O)cc3)sc2CN1Cc1ccc(-c2nnn(C)n2)cc1 [I-B9] | – | – | < 0.1 µM | < 0.1 µM
3 | CCS(=O)(=O)c1ccc(CNC(=O)c2nc3c(s2)CN(Cc2cnc(C(F)(F)F)nc2)[C@H]3C(C)C)cc1 | 0.1 to 1 µM | 0.1 to 1 µM | – | –
4 | CC(C)[C@H]1c2nc(C(=O)NCc3ccc(S(C)(=O)=O)cc3)sc2CN1Cc1ccc(C#N)cc1F | < 0.1 µM | 0.1 to 1 µM | – | –
5 | CCS(=O)(=O)c1ccc(CC(=O)Nc2nc3c(s2)CN([C@@H](C)c2c(F)cc(Cl)cc2F)[C@H]3C(C)C)cc1 (single isomer, unassigned) | < 0.1 µM | < 0.1 µM | – | –
6 | CCS(=O)(=O)c1ccc(CC(=O)Nc2nc3c(s2)CN(Cc2cc(C)c(C#N)cn2)[C@H]3C(C)C)cc1 [I-A49] | – | – | < 0.1 µM | < 0.1 µM
7 | CCS(=O)(=O)c1ccc(CNC(=O)c2nc3c(s2)CN(CC2CN(C(=O)OC(C)(C)C)CCO2)[C@H]3C(C)C)cc1 (stereo partly shown) | < 0.1 µM | < 0.1 µM | – | –
8 | CC[C@H]1c2nc(NC(=O)Cc3ccc(S(=O)(=O)C(F)F)cc3)sc2CN1Cc1ccc(Cl)cc1 | < 0.1 µM | 0.1 to 1 µM | – | –
9 | CCS(=O)(=O)c1ccc(CC(=O)Nc2nc3c(s2)CN(Cc2ccc(C#N)c(OC)n2)[C@H]3C(C)C)cc1 [I-A51] | – | – | < 0.1 µM | < 0.1 µM
10 | CCS(=O)(=O)c1ccc(CC(=O)Nc2nc3c(s2)CN(Cc2ccc(OC(F)F)cc2)[C@@H]3C(C)C)cc1 | < 0.1 µM | > 1 µM | – | –
11 | CCS(=O)(=O)c1ccc(CC(=O)Nc2nc3c(s2)CN(Cc2ccc(OC(F)F)cc2)[C@H]3C(C)C)cc1 [I-A1, (S)—N-(5-(4-(difluoromethoxy)benzyl)-4-isopropyl-5,6-dihydro-4H-pyrrolo[3,4-d]thiazol-2-yl)-2-(4-(ethylsulfonyl)phenyl)acetamide] | – | – | < 0.1 µM | < 0.1 µM
12 | CCS(=O)(=O)c1ccc(CC(=O)Nc2nc3c(s2)CN(Cc2ccc(-c4nnn(C)n4)cc2)[C@H]3C(C)C)nc1 [I-C9] | – | – | < 0.1 µM | < 0.1 µM
13 | CCS(=O)(=O)c1ccc(CC(=O)Nc2nc3c(s2)CN(Cc2ccc(Cl)cn2)[C@H]3C(C)C)cc1 [I-A11] | – | – | < 0.1 µM | < 0.1 µM
14 | CCS(=O)(=O)c1ccc(CC(=O)Nc2nc3c(s2)CN(Cc2ccc(C(=O)OC)cc2)[C@H]3C(C)C)cc1 [I-A60] | – | – | < 0.1 µM | < 0.1 µM
15 | CCS(=O)(=O)c1ccc(CC(=O)Nc2nc3c(s2)CN(c2ncc(C(C)=O)c(C(F)(F)F)n2)[C@H]3C(C)C)cc1 | < 0.1 µM | > 1 µM | – | –
16 | CC[C@H]1c2nc(NC(=O)Cc3ccc(S(=O)(=O)CC)cc3)sc2CN1[C@@H](C)Cc1ccccc1 | < 0.1 µM | > 1 µM | – | –

Row | SMILES | Ki ([1]; Table 9) | IC50 [2, 3] | Ki ([1]; Table 8) | IC50 [2, 4]
17 | CC(C)[C@H]1c2nc(NC(=O)Cc3ccc(S(C)(=O)=O)cc3)sc2CN1[C@@H](C)c1ccc(Cl)cn1 (single isomer, unassigned) | < 0.1 µM | 0.1 to 1 µM | – | –
18 | CCS(=O)(=O)c1ccc(CNC(=O)c2nc3c(s2)CN(Cc2ccc(C(F)(F)F)cn2)[C@H]3C(C)C)cc1 [I-J4] | – | – | < 0.1 µM | < 0.1 µM
19 | CCS(=O)(=O)c1ccc(CC(=O)Nc2nc3c(s2)CN(Cc2cc(OC)cc(OC)c2)[C@@H]3C(C)C)cc1 | < 0.1 µM | > 1 µM | – | –
20 | CC(C)[C@H]1c2nc(NC(=O)Cc3ccc(-c4nnn(C)n4)cc3)sc2CN1Cc1ccc(Cl)cc1 | 0.1 to 1 µM | 0.1 to 1 µM | – | –
21 | CCS(=O)(=O)c1ccc(CC(=O)Nc2nc3c(s2)CN(Cc2cccc(F)c2)[C@@H]3C(C)C)cc1 | < 0.1 µM | > 1 µM | – | –
22 | CCS(=O)(=O)c1ccc(CC(=O)Nc2nc3c(s2)CN(c2nc4cccnc4s2)[C@H]3C(C)C)cc1 | < 0.1 µM | > 1 µM | – | –
23 | CCS(=O)(=O)c1ccc(CC(=O)Nc2nc3c(s2)CN(Cc2ccc(C#N)cc2)[C@@H]3C(C)C)cc1 | 0.1 to 1 µM | 0.1 to 1 µM | – | –
24 | CC(C)[C@H]1c2nc(C(=O)NCc3ccc(S(C)(=O)=O)cc3)sc2CN1Cc1ccc(F)cc1 | < 0.1 µM | > 1 µM | – | –
25 | CCS(=O)(=O)c1ccc(CNC(=O)c2nc3c(s2)CN(C[C@@H]2CN(C(=O)OC(C)(C)C)CCO2)[C@H]3C(C)C)cc1 [I-J5] | – | – | < 0.1 µM | < 0.1 µM
26 | CC(C)[C@H]1c2nc(C(=O)NCc3ccc(S(C)(=O)=O)cc3)sc2CN1Cc1ccc(Cl)cn1 [drawing 378] | < 0.1 µM | 0.1 to 1 µM | – | –
27 | CC(C)[C@H]1c2nc(NC(=O)Cc3ccc(S(C)(=O)=O)cc3)sc2CN1Cc1ccc(C(F)(F)F)cc1 [I-B19] | – | – | < 0.1 µM | < 0.1 µM
28 | CCS(=O)(=O)c1ccc(CC(=O)Nc2nc3c(s2)C(C)N(Cc2ccc(Cl)cc2)[C@H]3C(C)C)cc1 (stereo partly shown) | < 0.1 µM | < 0.1 µM | – | –
29 | CC(C)[C@H]1c2nc(NC(=O)Cc3ccc(Br)cc3)sc2CN1Cc1ccc(Cl)cc1 | 0.1 to 1 µM | > 1 µM | – | –
30 | CC[C@@H]1c2nc(NC(=O)Cc3ccc(S(=O)(=O)CC)cc3)sc2CN1Cc1ccc2c(c1)OCO2 | < 0.1 µM | > 1 µM | – | –
31 | CC[C@H]1c2nc(NC(=O)Cc3ccc(S(=O)(=O)CC)cc3)sc2CN1[C@@H](C)c1ncc(Cl)cc1F | < 0.1 µM | 0.1 to 1 µM | – | –

Further lines, results first:

Row | Ki ([1]; Table 9) | IC50 [2, 3] | Ki ([1]; Table 8) | IC50 [2, 4] | SMILES
32 | < 0.1 µM | > 1 µM | – | – | CCS(=O)(=O)c1ccc(CC(=O)Nc2nc3c(s2)CN(C[C@@H]2CC[C@H](C(F)(F)F)N(C4CC4)C2)[C@H]3C(C)C)cc1 (single isomer, unassigned)
33 | < 0.1 µM | < 0.1 µM | – | – | CCS(=O)(=O)c1ccc(CC(=O)Nc2nc3c(s2)CN(Cc2ccn(CC(F)(F)F)c(=O)c2)[C@H]3C(C)C)cc1
34 | < 0.1 µM | > 1 µM | – | – | CCS(=O)(=O)c1ccc(CC(=O)Nc2nc3c(s2)CN(C[C@H]2CC[C@@H](C(F)(F)F)N(C)C2)C3C(C)C)cc1 (single isomer, unassigned)
35 | < 0.1 µM | > 1 µM | – | – | CCS(=O)(=O)c1ccc(CC(=O)Nc2nc3c(s2)CN(Cc2cc(OC(F)(F)F)ccc2F)[C@@H]3C(C)C)cc1
36 | 0.1 to 1 µM | > 1 µM | – | – | CCS(=O)(=O)c1ccc(CC(=O)Nc2nc3c(s2)CN(C[C@H]2CC[C@@H](C(=O)O)CC2)[C@H]3C(C)C)cc1
37 | < 0.1 µM | > 1 µM | – | – | CCS(=O)(=O)c1ccc(CC(=O)Nc2nc3c(s2)CN(C[C@@H]2CC[C@H](C(F)(F)F)OC2)[C@H]3C(C)C)cc1 (relative stereo)
38 | < 0.1 µM | > 1 µM | – | – | CCS(=O)(=O)c1ccc(CC(=O)Nc2nc3c(s2)CN(Cc2cccc(C(F)(F)F)c2)[C@@H]3C(C)C)cc1
39 | – | – | < 0.1 µM | < 0.1 µM | CCS(=O)(=O)c1ccc(CC(=O)Nc2nc3c(s2)CN(Cc2ccc(C)cc2)[C@H]3C(C)C)cc1 [I-A64]
40 | < 0.1 µM | 0.1 to 1 µM | – | – | CCS(=O)(=O)c1ccc(CC(=O)Nc2nc3c(s2)CN(C[C@H]2CC[C@H](C(N)=O)CC2)[C@H]3C(C)C)cc1
41 | – | – | < 0.1 µM | < 0.1 µM | CCS(=O)(=O)c1ccc(CC(=O)Nc2nc3c(s2)CN(C[C@@H]2CN(C(=O)OC(C)(C)C)CCO2)[C@H]3C(C)C)cc1 [I-A43]
42 | < 0.1 µM | > 1 µM | – | – | CCS(=O)(=O)c1ccc(CC(=O)Nc2nc3c(s2)CN(Cc2cccc(C4CC4)c2)[C@@H]3C(C)C)cc1
43 | < 0.1 µM | < 0.1 µM | – | – | CCS(=O)(=O)c1ccc(CC(=O)Nc2nc3c(s2)CN(C[C@H]2CC[C@@](O)(C(F)(F)F)CC2)[C@H]3C(C)C)cc1 (single isomer, unassigned)
44 | – | – | < 0.1 µM | < 0.1 µM | CCS(=O)(=O)c1ccc(CC(=O)Nc2nc3c(s2)CN(Cc2cnc(C(F)(F)F)nc2)[C@H]3C(C)C)cc1 [I-A58]
45 | – | – | < 0.1 µM | < 0.1 µM | CCS(=O)(=O)c1ccc(CC(=O)Nc2nc3c(s2)CN(C[C@H]2CC[C@H](c4nnc(C)o4)CC2)[C@H]3C(C)C)cc1 [I-A23]
46 | < 0.1 µM | < 0.1 µM | – | – | CCS(=O)(=O)c1ccc(CC(=O)Nc2nc3c(s2)CN(C[C@H]2CC[C@](OC)(C(F)(F)F)CC2)[C@H]3C(C)C)nc1 (single isomer, unassigned)
47 | < 0.1 µM | > 1 µM | – | – | CCS(=O)(=O)c1ccc(CC(=O)Nc2nc3c(s2)CN(c2nccc(C(F)(F)F)n2)[C@H]3C(C)C)cc1

Reference: patent publication US9868748B2, “Thiazolopyrrolidine inhibitors of ROR- γ” (Vitae Pharmaceuticals, Inc., priority 2013, dated 2018)
